Patent US20260306644A1, “ANTIBODY RECRUITING MOLECULES FOR THE TREATMENT OF CORONAVIRUS DISEASE-19” (priority 2023, published 2026)
Where “and” joins values, the source holds several entries; their conditions need not be identical. Identical values can stand only once. Like-named read-outs stand apart in the source and are kept apart here. Positions of bridges follow the written chain, without caps; N, C: chain ends. Residues, ends and D or L forms follow the SMILES beside them. *: point of attachment. Biotin = O=C1N[C@H]2[C@H](CS[C@H]2CCCCC(=O)*)N1; PEG4 = NCCOCCOCCOCCOCCC(=O)O

Tests used:
SARS-CoV-2 Spike protein = SARS-CoV-2 Spike protein (Severe acute respiratory syndrome coronavirus 2, UniProt P0DTC2); test: Ternary binding of SARS-CoV-2 Spike protein (293T cells expressing Spike-GFP, IgG-AF647, flow cytometry); type: cell-based; conditions: IgG-AF647 10 μg/ml, repeat values/batches listed separately, read-out: SARS-CoV-2 Ternary binding EC50
[1] = target: T1, SARS-CoV-2 Spike A (wild-type) (Severe acute respiratory syndrome coronavirus 2, UniProt P0DTC2); test: MSD ACE2 competition assay (inhibition of Spike binding with ACE2, ECL), A (wild-type); conditions: IC50 Wild Type, Wild Type Spike
T1 construct: purchased Meso Scale Diagnostics, LLC V-PLEX SARS-CoV-2 Panel 13 (ACE2) Kit / Panel 23 (ACE2) Kit

[2] = system: Spike RBD coated magnetic beads / RAW 264.7 macrophages; test: Antibody-dependent cellular phagocytosis (ADCP), RAW 264.7 macrophages and Spike RBD coated magnetic beads, flow cytometry; type: cell-based; conditions: 37° C., 2 hours, read-out: SARS-COV-2 ADCP EC50
Procedure: The ability of the compounds to mediate antibody-dependent cellular phagocytosis (ADCP) was assessed using RAW 264.7 macrophages and Spike RBD coated magnetic beads (https://www.acrobiosystems.com/P3194-SARS-CoV-2-Spike-RBD-coupled-Magnetic-Beads.html). Spike RBD coated magnetic beads (3 ul per well) were added to each well of a round bottom 96-well plates. RAW264.7 cells (50,000 cells per well) were added to the beads. Next, the compounds were administered to predetermined final concentrations. The cell-bead mixtures were incubated at 37° C. for 2 hours. The mixtures were then analyzed by flow cytometry.

[3] = 293T cells expressing Spike-GFP

Compound	EC50 (SARS-CoV-2 Spike protein; [3])	IC50 [1] [nM]	EC50 [2]	EC50 (SARS-CoV-2 Spike protein; […]) [nM]
DKEWILQKIYEIMRLLDELGHAEASMRVSDLIYEFMKKGDERLLEEAERLLEEVERGGGGGGDCAWHLGELVWCT-NH2 (disulfide 64-74) [Compound 170]	0.02 nM	1.52	0.95 nM	
Ac-DKEWILQKIYEIMRLLDELGHAEASMRVSDLIYEFMKKGDERLLEEAERLLEEVERGQAPGQAPDCAWHLGELVWCT-NH2 (disulfide 66-76) [Compound 147]		1.35	0.43 nM	0.02
CC[C@H](C)[C@H](NC(=O)[C@H](CC(C)C)NC(=O)[C@H](CC(=O)O)NC(=O)[C@H](CO)NC(=O)[C@@H]1CSSC[C@H](NC(=O)[C@@H](NC(=O)[C@H](CCC(=O)O)NC(=O)[C@H](Cc2ccc(O)cc2)NC(=O)[C@@H](NC(=O)[C@H](CCCCN)NC(=O)[C@H](CCC(N)=O)NC(=O)[C@H](CC(C)C)NC(=O)[C@@H](NC(=O)[C@H](Cc2c[nH]c3ccccc23)NC(=O)[C@H](CCC(=O)O)NC(=O)[C@H](CCCCN)NC(=O)[C@H](CC(=O)O)NC(=O)CCOCCOCCOCCOCCNC(=O)CCCC[C@@H]2SC[C@@H]3NC(=O)N[C@@H]32)[C@@H](C)CC)[C@@H](C)CC)[C@@H](C)CC)C(=O)N[C@@H](CCCNC(=N)N)C(=O)N[C@@H](CC(C)C)C(=O)N[C@@H](CC(C)C)C(=O)N[C@@H](CC(=O)O)C(=O)N[C@@H](CCC(=O)O)C(=O)N[C@@H](CC(C)C)C(=O)NCC(=O)N[C@@H](Cc2c[nH]cn2)C(=O)N[C@@H](C)C(=O)N[C@@H](CCC(=O)O)C(=O)N[C@@H](C)C(=O)N[C@@H](CO)C(=O)N[C@@H](CCSC)C(=O)N[C@@H](CCCNC(=N)N)C(=O)N1)C(=O)N[C@@H](Cc1ccc(O)cc1)C(=O)N[C@@H](CCC(=O)O)C(=O)N[C@@H](Cc1ccccc1)C(=O)N[C@@H](CCSC)C(=O)N[C@@H](CCCCN)C(=O)N[C@@H](CCCCN)C(=O)NCC(=O)O [Compound 181] ({Biotin-PEG4}-DKEWILQKIYEICRLLDELGHAEASMRCSDLIYEFMKKG-OH; disulfide 13-28)	0.77 nM and < 0.3 nM	2.51	2.1 nM and 3.1 nM	
DKEWILQKIYEIMRLLDELGHAEASMRVSDLIYEFMKKGDERLLEEAERLLEEVERGQAPGQAPDCAWHLGELVWCT-NH2 (disulfide 66-76) [Compound 174]		1.4	0.044 nM	0.14
DKEWILQKIYEIMRLLDELGHAEASMRVSDLIYEFMKKGDERLLEEAERLLEEVEREAAAKEAAAKDCAWHLGELVWCT-NH2 (disulfide 68-78) [Compound 173]		1.21	0.35 nM	0.04
Ac-DKEWILQKIYEIMRLLDELGHAEASMRVSDLIYEFMKKGDERLLEEAERLLEEVERPASPASPASPASDCAWHLGELVWCT (disulfide 70-80) [Compound 165]		0.83	0.07 nM	0.11
Ac-DKEWILQKIYEIMRLLDELGHAEASMRVSDLIYEFMKKGDERLLEEAERLLEEVERGGGGDCAWHLGELVWCT-NH2 (disulfide 62-72) [Compound 144]	0.03 nM	1.17	0.61 nM	
Ac-DKEWILQKIYEIMRLLDELGHAEASMRVSDLIYEFMKKGDERLLEEAERLLEEVERGGDCAWHLGELVWCT-NH2 (disulfide 60-70) [Compound 145]	0.04 nM	0.97	0.52 nM	
Ac-DKEWILQKIYEIMRLLDELGHAEASMRVSDLIYEFMKKGDERLLEEAERLLEEVERGGGGGGDCAWHLGELVWCT-NH2 (disulfide 64-74) [Compound 143]	0.05 nM	1.35	0.75 nM	
Ac-DKEWILQKIYEIMRLLDELGHAEASMRVSDLIYEFMKKGDERLLEEAERLLEEVEREAAAKEAAAKDCAWHLGELVWCT-NH2 (disulfide 68-78) [Compound 146]		1	0.27 nM	0.02
CC[C@H](C)[C@H](NC(=O)[C@H](CC(C)C)NC(=O)[C@H](CC(=O)O)NC(=O)[C@H](CO)NC(=O)[C@@H](NC(=O)[C@H](CCCNC(=N)N)NC(=O)[C@H](CCSC)NC(=O)[C@H](CO)NC(=O)[C@H](C)NC(=O)[C@H](CCC(=O)O)NC(=O)[C@H](C)NC(=O)[C@H](Cc1c[nH]cn1)NC(=O)CNC(=O)[C@H](CC(C)C)NC(=O)[C@H](CCC(=O)O)NC(=O)[C@H](CC(=O)O)NC(=O)[C@H](CC(C)C)NC(=O)[C@H](CC(C)C)NC(=O)[C@H](CCCNC(=N)N)NC(=O)[C@H](CCSC)NC(=O)[C@@H](NC(=O)[C@H](CCC(=O)O)NC(=O)[C@H](Cc1ccc(O)cc1)NC(=O)[C@@H](NC(=O)[C@H](CCCCN)NC(=O)[C@H](CCC(N)=O)NC(=O)[C@H](CC(C)C)NC(=O)[C@@H](NC(=O)[C@H](Cc1c[nH]c2ccccc12)NC(=O)[C@H](CCC(=O)O)NC(=O)[C@H](CCCCN)NC(=O)[C@H](CC(=O)O)NC(C)=O)[C@@H](C)CC)[C@@H](C)CC)[C@@H](C)CC)C(C)C)C(=O)N[C@@H](Cc1ccc(O)cc1)C(=O)N[C@@H](CCC(=O)O)C(=O)N[C@@H](Cc1ccccc1)C(=O)N[C@@H](CCSC)C(=O)N[C@@H](CCCCN)C(=O)N[C@@H](CCCCN)C(=O)NCC(=O)N[C@@H](CC(=O)O)C(=O)N[C@@H](CCC(=O)O)C(=O)N[C@@H](CCCNC(=N)N)C(=O)N[C@@H](CC(C)C)C(=O)N[C@@H](CC(C)C)C(=O)N[C@@H](CCC(=O)O)C(=O)N[C@@H](CCC(=O)O)C(=O)N[C@@H](C)C(=O)N[C@@H](CCC(=O)O)C(=O)N[C@@H](CCCNC(=N)N)C(=O)N[C@@H](CC(C)C)C(=O)N[C@@H](CC(C)C)C(=O)N[C@@H](CCC(=O)O)C(=O)N[C@@H](CCC(=O)O)C(=O)N[C@H](C(=O)N[C@@H](CCC(=O)O)C(=O)N[C@@H](CCCNC(=N)N)C(=O)NCCOCCOCCOCCOCCOCCOCCOCCOCCC(=O)NCCOCCOCCOCCOCCOCCOCCOCCOCCC(=O)N[C@@H](CC(=O)O)C(=O)N[C@H]1CSSC[C@@H](C(=O)N[C@H](C(N)=O)[C@@H](C)O)NC(=O)[C@H](Cc2c[nH]c3ccccc23)NC(=O)[C@H](C(C)C)NC(=O)[C@H](CC(C)C)NC(=O)[C@H](CCC(=O)O)NC(=O)CNC(=O)[C@H](CC(C)C)NC(=O)[C@H](Cc2c[nH]cn2)NC(=O)[C@H](Cc2c[nH]c3ccccc23)NC(=O)[C@H](C)NC1=O)C(C)C [Compound 124]			0.43 nM	
Ac-DKEWILQKIYEIMRLLDELGHAEASMRVSDLIYEFMKKGDERLLEEAERLLEEVERGGGGGGGGDCAWHLGELVWCT-NH2 (disulfide 66-76) [Compound 142]	0.05 nM	1.35	0.6 nM	
DKEWILQKIYEIMRLLDELGHAEASMRVSDLIYEFMKKGDERLLEEAERLLEEVERGGGGDCAWHLGELVWCT-NH2 (disulfide 62-72) [Compound 171]	0.01 nM	1.25	0.41 nM	
DKEWILQKIYEIMRLLDELGHAEASMRVSDLIYEFMKKGDERLLEEAERLLEEVERGGGGGGGGDCAWHLGELVWCT-NH2 (disulfide 66-76) [Compound 169]	0.01 nM	1.22	0.53 nM	
DKEWILQKIYEIMRLLDELGHAEASMRVSDLIYEFMKKGDERLLEEAERLLEEVERGGDCAWHLGELVWCT-NH2 (disulfide 60-70) [Compound 172]	0.02 nM	1.05	0.87 nM	
